ChEMBL document CHEMBL5120818, “Discovery and Biosynthesis of Antimicrobial Phenethylamine Alkaloids from the Marine Flavobacterium Tenacibaculum discolor sv11” (2022)

Key:
Type in all cases: functional
[1] = system: Bacillus subtilis; experiment: Antibacterial activity against Bacillus subtilis DSM10 measured after 18 hrs by micro broth dilution assay
[2] = system: Escherichia coli; experiment: Antibacterial activity against delta tolC deficient Escherichia coli ATCC25922 measured after 18 hrs by micro broth dilution assay
[3] = system: Listeria monocytogenes; experiment: Antibacterial activity against Listeria monocytogenes DSM20600 measured after 48 hrs by BacTiter-glo assay
[4] = system: Candida albicans; experiment: Antifungal activity against Candida albicans FH2173 measured after 48 hrs by BacTiter-glo assay
[5] = system: Mycolicibacterium smegmatis; experiment: Antibacterial activity against Mycobacterium smegmatis ATCC607 measured after 48 hrs by BacTiter-glo assay
[6] = system: Staphylococcus aureus; experiment: Antibacterial activity against Staphylococcus aureus ATCC25923 measured after 18 hrs by micro broth dilution assay
[7] = system: Caenorhabditis elegans; experiment: Antihelminthic activity against Caenorhabditis elegans N2 assessed as reduction in worm motility measured after 2 days by binocular dissecting microscopy; settings: N2, 48 h, time 2 day
[8] = system: Escherichia coli; experiment: Antibacterial activity against Escherichia coli ATCC25922 measured after 18 hrs by micro broth dilution assay
[9] = system: Aspergillus flavus; experiment: Antifungal activity against Aspergillus flavus ATCC9170 measured after 24 hrs by BacTiter-glo assay

CCCC1=[N+](CCc2ccccc2)C(C)(CCC(=O)c2ccccc2N)C(NCCc2ccccc2)=C1 (centres undefined)
MIC [1]: 4 µg/mL
MIC [2]: > 64 µg/mL
MIC [3]: 4 µg/mL
MIC [4]: 16 µg/mL
MIC [5]: 8 µg/mL
MIC [6]: 8 µg/mL
MIC [7]: 64 µg/mL
MIC [8]: > 64 µg/mL
MIC [9]: 16 µg/mL

CCCc1n(CCc2ccccc2)c(C)c(C)[n+]1CCc1ccccc1
MIC [1]: 16 µg/mL
MIC [2]: > 64 µg/mL
MIC [3]: > 64 µg/mL
MIC [4]: > 64 µg/mL
MIC [5]: 8 µg/mL
MIC [6]: 64 µg/mL
MIC [7]: > 64 µg/mL
MIC [8]: > 64 µg/mL
MIC [9]: > 64 µg/mL

CCCc1c(C)cn(CCc2ccccc2)c2cc(CCC)[n+](CCc3ccccc3)c1-2
MIC [1]: 4 µg/mL
MIC [2]: 64 µg/mL
MIC [3]: 2 µg/mL
MIC [4]: 8 µg/mL
MIC [5]: 4 µg/mL
MIC [6]: 4 µg/mL
MIC [7]: > 64 µg/mL
MIC [8]: > 64 µg/mL
MIC [9]: 8 µg/mL

CCCc1cc2n(CCc3ccccc3)cc(-c3ccccc3)cc-2[n+]1CCc1ccccc1
MIC [1]: 1 µg/mL
MIC [2]: 8 µg/mL
MIC [3]: 0.5 µg/mL
MIC [4]: 4 µg/mL
MIC [5]: 0.5 µg/mL
MIC [6]: 0.5 µg/mL
MIC [7]: 32 µg/mL
MIC [8]: 64 µg/mL
MIC [9]: 1 µg/mL

CCCc1c(CC)cc(CC)c[n+]1CCc1ccccc1
MIC [1]: > 64 µg/mL
MIC [2]: > 64 µg/mL
MIC [3]: > 64 µg/mL
MIC [4]: > 64 µg/mL
MIC [5]: > 64 µg/mL
MIC [6]: > 64 µg/mL
MIC [7]: > 64 µg/mL
MIC [8]: > 64 µg/mL
MIC [9]: > 64 µg/mL

CCCc1n(CCc2ccccc2)c(C)c(CC)[n+]1CCc1ccccc1
MIC [1]: 32 µg/mL
MIC [2]: > 64 µg/mL
MIC [3]: > 64 µg/mL
MIC [4]: > 64 µg/mL
MIC [5]: 8 µg/mL
MIC [6]: 64 µg/mL
MIC [7]: > 64 µg/mL
MIC [8]: > 64 µg/mL
MIC [9]: > 64 µg/mL
